Laboratory results reported in the NIST ThermoML archive (doi:10.1021/je100757w).

Assay: xn = mol fraction of the nth substance listed
Settings: for surface tension liquid-gas: Ring tensiometer; for mass density: 101.3 kPa, Liquid

COCCOCCOCCOCCOC [2,5,8,11,14-pentaoxapentadecane] + O
Settings	mass density [kg/m3]	surface tension liquid-gas [mN/m]
298.15 K, x1 = 0.0016	–	50.16
298.15 K, x1 = 0.002	–	48.89
298.15 K, x1 = 0.0026	–	47.04
298.15 K, x1 = 0.0031	–	46.37
298.15 K, x1 = 0.0092	–	43.11
298.15 K, x1 = 0.0142	1011.13	–
298.15 K, x1 = 0.0174	–	41.23
298.15 K, x1 = 0.0283	–	40.1
298.15 K, x1 = 0.057	–	39.54
298.15 K, x1 = 0.0746	–	38.88
298.15 K, x1 = 0.0747	1035.25	–
298.15 K, x1 = 0.1026	–	38.65
298.15 K, x1 = 0.1452	1036.72	–
298.15 K, x1 = 0.1497	–	37.66
298.15 K, x1 = 0.2264	–	36.29
298.15 K, x1 = 0.2309	1031.3	–
298.15 K, x1 = 0.2862	–	35.79
298.15 K, x1 = 0.2974	1026.41	–
298.15 K, x1 = 0.4065	1020.2	–
298.15 K, x1 = 0.4268	–	35.09
298.15 K, x1 = 0.5085	1016.34	–
298.15 K, x1 = 0.5414	–	34.92
298.15 K, x1 = 0.5863	1014.23	–
298.15 K, x1 = 0.6144	–	34.46
298.15 K, x1 = 0.6788	1012.16	–
298.15 K, x1 = 0.787	–	34.2
298.15 K, x1 = 0.8139	1009.47	–
298.15 K, x1 = 0.8286	–	34.19
298.15 K, x1 = 0.854	1008.76	–
298.15 K, x1 = 0.9196	–	33.91
298.15 K, x1 = 0.9569	1007.43	–
298.15 K, x1 = 1	1007.26	33.74
308.15 K, x1 = 0.0014	–	51
308.15 K, x1 = 0.0023	–	46.99
308.15 K, x1 = 0.0032	–	45.45
308.15 K, x1 = 0.004	–	44.21
308.15 K, x1 = 0.009	–	42.87
308.15 K, x1 = 0.0142	1006.56	–
308.15 K, x1 = 0.0175	–	39.9
308.15 K, x1 = 0.0275	–	39.08
308.15 K, x1 = 0.0539	–	38.34
308.15 K, x1 = 0.0715	–	37.36
308.15 K, x1 = 0.0747	1027.26	–
308.15 K, x1 = 0.099	–	37.28
308.15 K, x1 = 0.1452	1027.67	–
308.15 K, x1 = 0.1478	–	35.51
308.15 K, x1 = 0.2212	–	34.95
308.15 K, x1 = 0.2309	1022.01	–
308.15 K, x1 = 0.2974	1017.12	–
308.15 K, x1 = 0.3074	–	34.22
308.15 K, x1 = 0.4065	1010.92	–
308.15 K, x1 = 0.4252	–	33.85
308.15 K, x1 = 0.5085	1007.06	–
308.15 K, x1 = 0.5523	–	33.58
308.15 K, x1 = 0.5863	1004.92	–
308.15 K, x1 = 0.6404	–	33.32
308.15 K, x1 = 0.6788	1002.83	–
308.15 K, x1 = 0.7835	–	33.05
308.15 K, x1 = 0.8139	1000.17	–
308.15 K, x1 = 0.814	–	32.88
308.15 K, x1 = 0.854	999.47	–
308.15 K, x1 = 0.9479	–	32.64
308.15 K, x1 = 0.9569	998.16	–
308.15 K, x1 = 1	997.98	32.45
318.15 K, x1 = 0.0013	–	58.46
318.15 K, x1 = 0.0019	–	54.2
318.15 K, x1 = 0.0024	–	51.29
318.15 K, x1 = 0.0033	–	47.59
318.15 K, x1 = 0.0098	–	42.27
318.15 K, x1 = 0.0142	1001.29	–
318.15 K, x1 = 0.0187	–	40.41
318.15 K, x1 = 0.0314	–	40.39
318.15 K, x1 = 0.0584	–	38.25
318.15 K, x1 = 0.0747	1019.04	–
318.15 K, x1 = 0.0748	–	37.24
318.15 K, x1 = 0.1022	–	36.5
318.15 K, x1 = 0.1452	1018.51	–
318.15 K, x1 = 0.1482	–	35.37
318.15 K, x1 = 0.2219	–	33.81
318.15 K, x1 = 0.2309	1012.58	–
318.15 K, x1 = 0.2974	1007.72	–
318.15 K, x1 = 0.3152	–	33.3
318.15 K, x1 = 0.4065	1001.56	–
318.15 K, x1 = 0.4328	–	32.94
318.15 K, x1 = 0.5085	997.73	–
318.15 K, x1 = 0.5259	–	32.75
318.15 K, x1 = 0.5863	995.58	–
318.15 K, x1 = 0.5974	–	32.47
318.15 K, x1 = 0.6788	993.48	–
318.15 K, x1 = 0.7667	–	32.22
318.15 K, x1 = 0.8139	990.83	–
318.15 K, x1 = 0.8249	–	32.05
318.15 K, x1 = 0.854	990.15	–
318.15 K, x1 = 0.9324	–	31.94
318.15 K, x1 = 0.9569	988.89	–
318.15 K, x1 = 1	988.72	31.71
